Measurements reported in patent US20260217732A1, “WRN INHIBITOR” (SUZHOU PUHE BIOPHARMA CO., LTD., priority 2022, published 2026).
Read-outs that look alike come from different tables or passages of the source.

How the values were obtained:
[1] = test system: SW48 colorectal cancer cells; experiment: 2D antiproliferation on MSI-H SW48 cells, CTG, 5 days; type: cell-based; conditions: for IC50 / inhibition at 38.15 pM / inhibition at 0.000152588 µM / inhibition at 0.000610352 µM / inhibition at 0.00244141 µM / inhibition at 0.00976562 µM / inhibition at 0.0390625 µM / inhibition at 0.15625 µM / inhibition at 0.625 µM / inhibition at […] / inhibition at 10 µM: Homo sapiens; for IC50: 120 h, SW48 MSI-H, 5 days; for inhibition at 38.15 pM: SW48, 0.038146973 nM; for inhibition at 0.000152588 µM: SW48, 0.152587891 nM; for inhibition at 0.000610352 µM: SW48, 0.610351563 nM; for inhibition at 0.00244141 µM: SW48, 2.44140625 nM; for inhibition at 0.00976562 µM: SW48, 9.765625 nM; for inhibition at 0.0390625 µM: SW48, 39.0625 nM; for inhibition at 0.15625 µM: SW48, 156.25 nM; for inhibition at 0.625 µM: SW48, 625 nM; for inhibition at […]: SW48, 2500 nM; for inhibition at 10 µM: SW48, 10000 nM
Method: The molecules of the present disclosure were tested for their anti-proliferative activity on MSI-H tumor cells.
SW48 colorectal cancer cells with MSI were cultured in a RMI1640 medium containing 10% FBS and 1% penicillin-streptomycin, and the mixture was cultured in a 37° C., 5% CO2 incubator. 40 μL of cell suspension was added to each well of a 384-well microplate. […] of compounds with different concentrations were added to each well using Echo, and the mixtures were cultured in a 37° C., 5% CO2 incubator for 5 days. 40 μL of CTG solution (Promega, Cat No. G7573) was added to each well and incubated in a 37° C., 5% CO2 incubator in the dark for 30 minutes. The luminescence value was read using an Envision multi-function microplate reader (Perkin Elmer, catalog number Envision 2104). The optical signal is proportional to the amount of ATP in the system, while the ATP content directly characterizes the number of viable cells in the system.

[2] = test system: HT-29 colorectal cancer cells; experiment: 2D antiproliferation on MSS HT-29 cells, CTG, 5 days; type: cell-based; conditions: Homo sapiens, 120 h, HT-29 MSS
Method: The molecules of the invention were tested for their anti-proliferative activities on MSS tumor cells.
HT-29 colorectal cancer cells with MSS were cultured in a McCoy's 5A medium containing 10% FBS and 1% penicillin-streptomycin in a 37° C., 5% CO2 constant temperature incubator. 40 μL of cell suspension was added to each well of a 384-well microplate. […] of compounds with different concentrations were added to each well using Echo. The mixtures were cultured in a 37° C., 5% CO2 constant temperature incubator for 5 days. 40 μL of CTG solution (Promega, Cat No. G7573) was added to each well, and the mixture was incubated in a 37° C., 5% CO2 constant temperature incubator for 30 minutes in the dark. The luminescence value was read using an Envision multi-function microplate reader (Perkin Elmer, catalog number Envision 2104). The optical signal is proportional to the amount of ATP in the system, while the ATP content directly characterizes the number of viable cells in the system.

[3] = read-out: Average Value/Inhibition Rate
[4] = read-out: Test 1/Inhibition Rate
[5] = read-out: Test 2/Inhibition Rate

CCc1c(N2CCN(C(=O)c3cc(C)ncn3)CC2)c(=O)n2nc(-c3cc4c(s3)COC4)nc2n1CC(=O)Nc1ccc(C(F)(F)F)cc1Cl [A2]
IC50 [1]: 848 nM

CCc1c(N2CCN(C(=O)c3ncnc(C)c3O)CC2)c(=O)n2nc(-c3ccc(=O)n(C)c3)nc2n1CC(=O)Nc1ccc(C(F)(F)F)cc1Cl [A3, reference compound]
IC50 [1]: 2000 nM

CCc1c(N2CCN(C(=O)c3ncccc3O)CC2)c(=O)n2nc(C3=CCS(=O)(=O)CC3)nc2n1CC(=O)Nc1ccc(C(F)(F)F)cc1Cl [P6]
IC50 [1]: 2060 nM
IC50 [2]: > 10000 nM

CCc1c(N2CCN(C(=O)c3ncnc(C)c3O)CC2)c(=O)n2nc(-c3cc4cn[nH]c4s3)nc2n1CC(=O)Nc1ccc(C(F)(F)F)cc1Cl [P19]
inhibitory activity on SW48 cells ([1]; 39 nM): high inhibitory activity
IC50 [1]: 82 nM
inhibition at 38.15 pM [1, 3]: -0.502%
inhibition at 38.15 pM [1, 4]: 2.13%
inhibition at 38.15 pM [1, 5]: -3.13%
inhibition at 0.000152588 µM [1, 3]: -1.21%
inhibition at 0.000152588 µM [1, 4]: -2.38%
inhibition at 0.000152588 µM [1, 5]: -0.0356%
inhibition at 0.000610352 µM [1, 3]: 2.86%
inhibition at 0.000610352 µM [1, 4]: 3.47%
inhibition at 0.000610352 µM [1, 5]: 2.26%
inhibition at 0.00244141 µM [1, 3]: -3.38%
inhibition at 0.00244141 µM [1, 4]: -2.94%
inhibition at 0.00244141 µM [1, 5]: -3.82%
inhibition at 0.00976562 µM [1, 3]: -3.51%
inhibition at 0.00976562 µM [1, 4]: -1.53%
inhibition at 0.00976562 µM [1, 5]: -5.5%
inhibition at 0.0390625 µM [1, 3]: 1.51%
inhibition at 0.0390625 µM [1, 4]: 3.47%
inhibition at 0.0390625 µM [1, 5]: -0.452%
inhibition at 0.15625 µM [1, 3]: 95.5%
inhibition at 0.15625 µM [1, 4]: 96%
inhibition at 0.15625 µM [1, 5]: 95%
inhibition at 0.625 µM [1, 3]: 97.6%
inhibition at 0.625 µM [1, 4]: 96.9%
inhibition at 0.625 µM [1, 5]: 98.4%
inhibition at […] [1, 3]: 98.6%
inhibition at […] [1, 4]: 99.4%
inhibition at […] [1, 5]: 97.8%
inhibition at 10 µM [1, 3]: 102%
inhibition at 10 µM [1, 4]: 103%
inhibition at 10 µM [1, 5]: 102%
IC50 [2]: > 10000 nM

CCc1c(N2CCN(C(=O)c3ncnc(C)c3O)CC2)c(=O)n2nc(-c3cc4c(s3)COC4)nc2n1CC(=O)Nc1ccc(Cl)cc1Cl [P26]
IC50 [1]: 41 nM
IC50 [2]: > 10000 nM

CCc1ccc(NC(=O)Cn2c(CC)c(N3CCN(C(=O)c4ncnc(C)c4O)CC3)c(=O)n3nc(-c4cc5c(s4)COC5)nc23)c(C)c1 [P27]
IC50 [1]: 46 nM
IC50 [2]: > 10000 nM

CCc1c(N2CCN(C(=O)c3ncccc3O)CC2)c(=O)n2nc(-c3cc4c(s3)COC4)nc2n1CC(=O)Nc1ccc(C(F)(F)F)cc1 [P28]
IC50 [1]: 136 nM
IC50 [2]: > 10000 nM

CCc1c(N2CCN(C(=O)c3ncnc(C)c3O)CC2)c(=O)n2nc(-c3cc4c(s3)COC4)nc2n1CC(=O)Nc1ccc(C(F)(F)F)c(F)c1C [P30]
IC50 [1]: 33 nM
IC50 [2]: > 10000 nM

CCc1c(N2CCN(C(=O)c3ncnc(C)c3O)CC2)c(=O)n2nc(-c3cc4c(s3)COC4)nc2n1CC(=O)Nc1cc(F)c(C(F)(F)F)cc1C [P31]
IC50 [1]: 49 nM
IC50 [2]: > 10000 nM

CCc1c(N2CCN(C(=O)c3ncnc(C)c3O)CC2)c(=O)n2nc(-c3sc(CO)nc3C)nc2n1CC(=O)Nc1ccc(C(F)(F)F)cc1Cl [P34]
IC50 [1]: 142 nM
IC50 [2]: > 10000 nM

CCc1c(N2CCN(C(=O)c3ncnc(C)c3O)CC2)c(=O)n2nc(-c3cnc(CO)s3)nc2n1CC(=O)Nc1ccc(C(F)(F)F)cc1Cl [P35]
IC50 [1]: 199 nM
IC50 [2]: > 10000 nM

CCc1c(N2CCN(C(=O)c3ncnc(C)c3O)CC2)c(=O)n2nc(-c3cnc(CO)s3)nc2n1CC(=O)Nc1ccc(C(F)(F)F)c2ccsc12 [P36]
IC50 [1]: 561 nM
IC50 [2]: > 10000 nM

CCc1c(N2CCN(C(=O)c3ncnc(C)c3O)CC2)c(=O)n2nc(-c3ccn4nccc4c3)nc2n1CC(=O)Nc1ccc(C(F)(F)F)cc1Cl [P37]
IC50 [1]: 46 nM
IC50 [2]: > 10000 nM

CCc1c(N2CCN(C(=O)c3ncnc(C)c3O)CC2)c(=O)n2nc(-c3ccc4nccn4c3)nc2n1CC(=O)Nc1ccc(C(F)(F)F)cc1Cl [P38]
IC50 [1]: 82 nM
IC50 [2]: > 10000 nM

CCc1c(N2CCN(C(=O)c3ncnc(C)c3O)CC2)c(=O)n2nc(-c3ccc4nncn4c3)nc2n1CC(=O)Nc1ccc(C(F)(F)F)cc1Cl [P39]
IC50 [1]: > 10000 nM
IC50 [2]: > 10000 nM

CCc1c(N2CCN(C(=O)c3ncnc(C)c3O)CC2)c(=O)n2nc(-c3cc4c(s3)COCC4)nc2n1CC(=O)Nc1ccc(C(F)(F)F)cc1Cl [P40]
IC50 [1]: 113 nM

CCc1c(N2CCN(C(=O)c3ncccc3O)CC2)c(=O)n2nc(-c3c[nH]c4ncncc34)nc2n1CC(=O)Nc1ccc(C(F)(F)F)cc1Cl [P41]
IC50 [1]: 2080 nM
IC50 [2]: 5590 nM

CCc1c(N2CCN(C(=O)c3ncnc(C)c3O)CC2)c(=O)n2nc(-c3cc4cncnc4s3)nc2n1CC(=O)Nc1ccc(C(F)(F)F)cc1Cl [P42]
IC50 [1]: 620 nM
IC50 [2]: > 10000 nM

CCc1c(N2CCN(C(=O)c3ncnc(C)c3O)CC2)c(=O)n2nc(-c3ncc(CO)s3)nc2n1CC(=O)Nc1ccc(C(F)(F)F)cc1Cl [P43]
IC50 [1]: 593 nM

CCc1c(N2CCN(C(=O)c3ncnc(C)c3O)CC2)c(=O)n2nc(-c3cc4cncnc4[nH]3)nc2n1CC(=O)Nc1ccc(C(F)(F)F)cc1Cl [P44]
IC50 [1]: > 10000 nM
IC50 [2]: > 10000 nM

CCc1c(N2CCN(C(=O)c3ncnc(C)c3O)CC2)c(=O)n2nc(-c3cc4n(c3)CCOC4)nc2n1CC(=O)Nc1ccc(C(F)(F)F)cc1Cl [P45]
IC50 [1]: 54 nM
IC50 [2]: > 10000 nM

CCc1c(N2CCN(C(=O)c3ncnc(C)c3O)CC2)c(=O)n2nc(-c3ccc4nccn4c3)nc2n1CC(=O)Nc1ccc(C(F)(F)F)cc1F [P46]
IC50 [1]: 452 nM
IC50 [2]: > 10000 nM

CCc1c(N2CCN(C(=O)c3ncnc(C)c3O)CC2)c(=O)n2nc(-c3ccn4nccc4c3)nc2n1CC(=O)Nc1ccc(C(F)(F)F)cc1C [P48]
IC50 [1]: 32 nM

CCc1c(N2CCN(C(=O)c3ncnc(C)c3O)CC2)c(=O)n2nc(-c3cnn(S(C)(=O)=O)c3)nc2n1CC(=O)Nc1ccc(C(F)(F)F)cc1Cl [P49]
IC50 [1]: 574 nM

CCc1c(N2CCN(C(=O)c3ncnc(C)c3O)CC2)c(=O)n2nc(-c3cc4cn[nH]c4s3)nc2n1CC(=O)Nc1ccc(C(F)(F)F)cc1F [P51]
IC50 [1]: 242 nM

CCc1c(N2CC3CC(C2)N3C(=O)c2ncnc(C)c2O)c(=O)n2nc(-c3cc4c(s3)COC4)nc2n1CC(=O)Nc1ccc(C(F)(F)F)cc1C [P54]
IC50 [1]: 2140 nM

CCc1c(N2CCN(C(=O)c3ncnc(C)c3O)C3(CC3)C2)c(=O)n2nc(-c3cc4c(s3)COC4)nc2n1CC(=O)Nc1ccc(C(F)(F)F)cc1C [P55]
IC50 [1]: 672 nM

CCc1c(N2CCN(C(=O)c3ncnc(C)c3O)CC2)c(=O)n2nc(-c3cc4c(s3)COC4)nc2n1CC(=O)Nc1ccc(C(F)(F)F)c2sccc12 [P56]
IC50 [1]: 36 nM

CCc1c(N2CCN(C(=O)c3ncnc(C)c3O)CC2)c(=O)n2nc(-c3cc4c(s3)COC4)nc2n1CC(=O)Nc1ccc(-c2cccnc2)cc1Cl [P61]
IC50 [1]: 8850 nM

CCc1c(N2CCN(C(=O)c3ncnc(C)c3O)CC2)c(=O)n2nc(-c3cn4cncc4s3)nc2n1CC(=O)Nc1ccc(C(F)(F)F)cc1C [P64]
IC50 [1]: 530 nM

[2H]C([2H])([2H])c1ncnc(C(=O)N2CCN(c3c(CC)n(CC(=O)Nc4ccc(C(F)(F)F)cc4Cl)c4nc(-c5cc6c(s5)COC6)nn4c3=O)CC2)c1O [P68]
IC50 [1]: 28 nM

[2H]C1([2H])N(C(=O)c2ncnc(C)c2O)C([2H])([2H])C([2H])([2H])N(c2c(CC)n(CC(=O)Nc3ccc(C(F)(F)F)cc3C)c3nc(-c4cc5c(s4)COC5)nn3c2=O)C1([2H])[2H] [P70]
IC50 [1]: 34 nM
